Common to all, as to assay type: in vivo
The test system of assay [1] is Tygress tomato plants. The assay can be described thus: Yields of tomato fruits, greenhouse spring 2009 (Examples 13-15). The procedure: The following experiments were performed in a green house during the spring of 2009 at GCREC, Balm, University of Florida. Crop set-up, procedures and variables were as follows.
Transplants of ‘Tygress’ tomato plants were planted in 2-gallon pots filled with commercial planting medium with nutrient concentration of Fe, Zn, Mn, Cu being negligible and insufficient for crop growth. Irrigation and non-micronutrient fertilizer were provided daily through microsprinklers at recommended rates for tomato production in Florida. No pesticides were used. Treatments were as described in Tables 42, 43, and 44 below. BIOX-Cu was compared to Cu-sulfate, BIOX-EDC, and BIOX-O; and BIOX-Fe was compared to Fe-sulfate and BIOX-EDF. BIOX-MEZ is Ca-HMTBA.
Treatments were applied at 6 WAT (weeks after transplanting) using a water volume of 200 mL/plant. Deionized water was used for foliar applications. A non-ionic surfactant was added. Other nutrients were applied as appropriate under non-limiting conditions.
Marketable fruit were collected three times during the growing season, starting at 10 WAT (4 weeks after the initial treatment). Tomato fruit was graded as marketable and non-marketable. Marketable fruit was sized as extra-large, large, and medium. Non-marketable fruit were harvested and number and weight recorded but not sized.
Experimental design was a randomized complete block design with 6 replications. Data were analyzed using a general linear model, and means were separated using an LSD test at the 5% significance level.

The test system of assay [2] is Florida-47 tomato. The assay can be described thus: Foliar nutrient concentration at 6 WAT, greenhouse Fall 2007, tomato. As to conditions: Example 2; crop not specified (tomato / bell pepper). The method, then:
The following experiments were performed in a green house during the fall of 2007 at GCREC, Balm, University of Florida. Fifteen products, at 3 different application rates were examined. The plot size was 2-gallon pots. Crop set-up, procedures and variables were as follows.
Transplants of ‘Florida-47’ tomato and ‘Aristotle’ bell pepper plants in the 4-true leaf stage (about 6 inches tall) were planted in 2-gal pots on Aug. 27, 2007. Pots were filled with a commercially available planting medium. This medium was selected based on the mineral composition of the products to be applied without providing significant nutritional inputs to the crops. Irrigation was provided with drip lines delivering between 0.50 and 0.33 gal/day/pot for tomato and bell pepper, respectively, and the crops were irrigated three times per day. No foliar pesticides were necessary. […]
Medium nutrient concentration was determined 1 week before treatment. […] The foliar tissue analysis was performed at 6 WAT and the concentration of N, P, K, Mg, Ca, S, B, Zn, Mn, Fe, and Cu was determined by a commercial laboratory. Plant toxicity was determined at 4 WAT by using a 0-10 visual scale, where 0=no visible damage and 10=total plant death. […]
Data were analyzed using a general linear model, and means were separated using orthogonal contrasts at the 5% significance level.

In assay [3] the test system is soybean plants (Asgrow 1102). The assay can be described thus: Soybean seed yield (Examples 11-12). The method, then:
The following experiments were performed on soybean plants growing in open-field plots during the summer and fall of 2008 at two production fields in West Central Minnesota. […] Trial design was a randomized complete block with 4 replications. Each plot measured 10' by 30' and consisted of five 22'' rows. Although all five rows of each plot were treated, only the center three rows (25' in length) of each plot were machine harvested. The two fields selected for these studies had historical Iron Deficiency Chlorosis (IDC) issues. The two field sites were planted by farmers with elite Roundup Ready commodity type soybean varieties with IDC tolerance (Asgrow 1102, Monsanto Corp.). […] BIOX-M was applied at a rate of 1.12 kg Mn/ha. […] All V4 treatments were applied in 10 gallons per acre of water with a backpack sprayer with a hand boom designed to “band” apply product directly to the plant row. Three nozzles with ConeJet TXVS-2 tips were oriented on either side and over the top of each row. This maximized the applied product to the plant tissue itself and minimized application of product to the soil surface. […] The V6 treatments (where applicable) were applied in 20 gallons per acre of water to increase the suspension of the BIOX products. Soybean seed was harvested after soybean maturity was reached (3 October at […], and 17 Oct. 2008 at Foxhome) and seed yields for each experimental treatment group were determined. In addition, seed samples from each treatment were dried to 13% moisture content, then analyzed for protein and oil content.

We go through four compounds from patent publication US20110098177A1, “METHODS AND COMPOSITIONS OF PLANT MICRONUTRIENTS” (NOVUS INTERNATIONAL INC., priority 2006, published 2011).

Take `CSCCC(O)C(=O)[O-].CSCCC(O)C(=O)[O-].[Cu+2]` (stereo not drawn) [BIOX-Cu, Cu-HMTBA]: the “Marketable tomato yields compared to non-treated control, statement” value is on record as “did not alter marketable yields relative to the non-treated control” in assay [1] (BIOX-Cu at 0.46 and 0.55 lb/acre, Cu-sulfate at 0.8 lb/acre, BIOX-EDC at 0.4 lb/acre); “significantly increased marketable tomato yields” in assay [1] (BIOX-Cu at the 0.14 and 0.28 lb/acre levels). For the same compound, the Marketable yield was 2350 a g/plant in assay [1] (Cu 0.14 lb/acre), 2500 a g/plant in assay [1] (Cu 0.28 lb/acre), 1250 b g/plant in assay [1] (Cu 0.46 lb/acre) and 1700 b g/plant in assay [1] (Cu 0.55 lb/acre). Besides, the “Foliar Cu relative to the non-Cu control” value in assay [2] is given as “about 4 times”.

For `CSCCC(O)C(=O)[O-].CSCCC(O)C(=O)[O-].[Mn+2]` (stereo not drawn) [BIOX-M, Mn-HMTBA], the Yield turned out to be 43.63 Bu/A in assay [3] (7.0 kg/ha, V4, Foxhome) and 24.15 Bu/A in assay [3] (7.0 kg/ha, V4, Renville).

`CSCCC(O)C(=O)[O-].CSCCC(O)C(=O)[O-].[Zn+2]` (stereo not drawn) [BIOX-Z, Zn-HMTBA]: in assay [2], the “Foliar Zn concentration relative to the non-Zn control” value is “approximately 3 times”.

As for Fe-HMTBA [BIOX-Fe], in assay [1] (BIOX-Fe at all levels, Fe-sulfate at 2.0 lb/acre, BIOX-EDF at 0.3 lb/acre), the “Marketable tomato yields compared to non-treated control, statement” value was “significantly higher marketable tomato yields than the non-treated control”. Besides, the Marketable yield in assay [1] (Fe 0.28 lb/acre) stood at 1750 g/plant; in assay [1] (Fe 0.57 lb/acre), 1900 g/plant; in assay [1] (Fe 1.12 lb/acre) it was 2100 g/plant; in assay [1] (Fe 1.74 lb/acre) it was 1900 g/plant; in assay [1] (Fe 2.3 lb/acre) it was 2400 g/plant. Moreover, the Yield in assay [3] (0.558 kg/ha, V4, V6, Foxhome) came out at 46.01 Bu/A; in assay [3] (0.558 kg/ha, V4, V6, Renville), 27.65 Bu/A; in assay [3] (0.558 kg/ha, V4, Foxhome), 43.17 Bu/A; in assay [3] (0.558 kg/ha, V4, Renville) it was 27.92 Bu/A; in assay [3] (1.12 kg/ha, V4, V6, Foxhome), 43.43 Bu/A; in assay [3] (1.12 kg/ha, V4, V6, Renville), 26.62 Bu/A. For the same compound, the Yield in assay [3] (1.12 kg/ha, V4, Foxhome) was 44.23 Bu/A; in assay [3] (1.12 kg/ha, V4, Renville), 27.43 Bu/A.
